Molecules are shown by their SMILES. Converted amounts (≈) assume the structure as drawn.

For one assay, the system named is B. subtilis. Put plainly: Inhibition of bacterial growth on agar plates (MIC). The class given is cell-based. To be noted: Bacillus subtilis, 37° C., 24 hours. Here is the method: (§1) Each compound is assayed against a panel of Bacillus, Enterococcus and Staphylococcus, and a Gram-negative bacterium Escherichia coli as negative control, grown in appropriate plate media solidified with 1.3% agar-agar. Stock solutions of the compounds in dimethylsulfoxide or water, depending on solubility, are added to sterile medium at a temperature of 60° C. […] One tenth mL of diluted bacteria containing 500-1000 colony-forming units (CFU) are plated and spread, and the plates incubated at 37° C. for 24 hours. MIC (minimum inhibitory concentration) is equivalent to the lowest concentration at which growth, i.e. colony formation, is not observed.

A further assay relates to E. fecium. The description is as above. The class given is cell-based. Particulars: 37° C., 24 hours. Here is the method:
as §1

The subject of a further assay is E. fecalis. The description is as above. Format: cell-based. Particulars: 37° C., 24 hours. On the procedure:
as §1

Another assay concerns S.aureus (Smith). The assay is described as above. The class given is cell-based. To be noted: Staphylococcus aureus, 37° C., 24 hours. Here is the method: as §1
The target in another assay is B.subtilis pol IIIC (Bacillus subtilis, UniProt P13267). Put plainly: biochemical. Here is the method:
DNA pol activity was assayed as described in Barnes et al., Nuc. Acids Res., 6:1203-19 (1979), using activated “nicked” calf-thymus DNA as template primer, 10 pM [^3H-methyl]-dTTP as the labelled dNTP substrate, and dATP, dCTP, and dGTP at 25 μM each.
Inhibitory activity of the compounds is determined by measuring the ability of the agent to inhibit enzyme-catalyzed incorporation of [^3H]-dTMP into nicked calf thymus DNA in the absence of the competitor dGTP or dATP (“truncated assay”) (see G. E. Wright and N. C. Brown, Inhibition of Bacillus subtilis DNA Polymerase III by Arylhydrazinopyrimidines: Novel Properties of 2-Thiouracil Derivatives, Biochim. Biophys. Acta 432:37-48 (1976)). Purified pol IIIC is added to a buffered solution containing Mg^2+, DTT, glycerol, nicked calf thymus DNA, saturating concentrations of dATP, dCTP, dTTP and [^3H]-dTTP. Reaction mixtures are incubated at 30° C. for 10 minutes, quenched and filtered, and radioactivity in the acid-insoluble material measured by scintillation counting. Experiments are done in triplicate. Inhibitors are assayed by addition of several dilutions of a stock solution of inhibitor (DMSO or water, depending on solubility) before enzyme addition. […] The truncated assay, i.e. exclusion of the competitive substrate dGTP or dATP, depending upon whether the compound is a uracil derivative or an isocytosine derivative, respectively, allows for the direct determination of apparent inhibitor constants (K,) in this assay system.

B.subtilis pol IIIC, sequence (P13267 whole entry): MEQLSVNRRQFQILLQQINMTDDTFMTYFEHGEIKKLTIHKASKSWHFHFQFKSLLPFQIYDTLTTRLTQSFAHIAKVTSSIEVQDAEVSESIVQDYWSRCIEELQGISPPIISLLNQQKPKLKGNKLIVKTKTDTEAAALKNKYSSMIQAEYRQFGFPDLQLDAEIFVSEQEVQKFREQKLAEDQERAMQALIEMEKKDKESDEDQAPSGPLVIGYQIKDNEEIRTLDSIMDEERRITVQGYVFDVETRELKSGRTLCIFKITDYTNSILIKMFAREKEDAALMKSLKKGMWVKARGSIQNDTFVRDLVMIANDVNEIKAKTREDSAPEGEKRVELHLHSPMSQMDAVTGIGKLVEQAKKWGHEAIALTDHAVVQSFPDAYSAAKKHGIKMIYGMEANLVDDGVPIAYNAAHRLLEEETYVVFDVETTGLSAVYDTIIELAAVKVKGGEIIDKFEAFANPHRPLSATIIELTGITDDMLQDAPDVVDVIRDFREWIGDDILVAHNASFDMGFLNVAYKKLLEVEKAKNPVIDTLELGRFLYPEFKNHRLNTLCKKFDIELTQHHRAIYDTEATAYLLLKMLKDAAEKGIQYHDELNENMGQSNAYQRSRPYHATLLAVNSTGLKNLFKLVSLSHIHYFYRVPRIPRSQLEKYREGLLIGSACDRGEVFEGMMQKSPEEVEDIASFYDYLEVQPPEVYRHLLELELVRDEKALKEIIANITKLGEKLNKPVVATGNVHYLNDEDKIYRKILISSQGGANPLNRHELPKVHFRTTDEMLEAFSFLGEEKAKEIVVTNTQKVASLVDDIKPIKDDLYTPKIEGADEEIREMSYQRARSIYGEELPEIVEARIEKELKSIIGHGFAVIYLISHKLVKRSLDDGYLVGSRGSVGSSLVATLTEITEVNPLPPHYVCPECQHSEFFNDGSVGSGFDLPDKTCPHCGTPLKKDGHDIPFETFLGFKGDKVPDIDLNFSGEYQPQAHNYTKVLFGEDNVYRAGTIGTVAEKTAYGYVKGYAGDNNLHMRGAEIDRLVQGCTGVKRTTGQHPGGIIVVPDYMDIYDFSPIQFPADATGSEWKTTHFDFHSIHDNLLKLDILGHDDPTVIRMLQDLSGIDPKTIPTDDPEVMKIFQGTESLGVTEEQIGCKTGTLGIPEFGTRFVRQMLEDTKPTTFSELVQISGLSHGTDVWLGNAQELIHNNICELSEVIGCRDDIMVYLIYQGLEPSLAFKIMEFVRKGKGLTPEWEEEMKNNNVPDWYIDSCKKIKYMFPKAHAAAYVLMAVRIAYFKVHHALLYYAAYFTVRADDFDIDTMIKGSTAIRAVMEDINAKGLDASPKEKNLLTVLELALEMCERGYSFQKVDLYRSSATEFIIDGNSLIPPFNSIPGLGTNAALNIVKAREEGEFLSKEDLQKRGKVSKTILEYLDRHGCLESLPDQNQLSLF

A word on the MIC: it is the lowest concentration that inhibits growth of the organism. As usually defined, the Ki is the dissociation constant of the complex between target and ligand, obtained from inhibition or displacement. A higher Ki goes with a looser hold on the target. As for `CCc1cc(Nc2cc(=O)n(CCCCN3CCN(c4ccc(C(F)(F)F)cc4[N+](=O)[O-])CC3)c(=O)[nH]2)ccc1C` [Compound 64, 3-{4-[4-(2-nitro-4-trifluoromethylphenyl)-1-piperazinyl]butyl}-6-(3-ethyl-4-methylanilino)uracil], the minimal inhibitory concentration (MIC) in the assay on B. subtilis, against E. fecium, in the assay on E. fecalis and against S.aureus (Smith) was 80 µg/mL (≈ 139 µM) in each case. Further, the Ki on B.subtilis pol IIIC amounted to 58.8 µM.
With `CCc1cc(Nc2cc(=O)n(CCCCN3CCN(c4ncc(C(=O)O)c(C(F)(F)F)n4)CC3)c(=O)[nH]2)ccc1C` [Compound 65, 3-{4-[4-(4-trifluoromethyl-5-carboxy-2-pyrimidinyl)-1-piperazinyl]butyl}-6-(3-ethyl-4-methylanilino)uracil], the MIC came to 80 µg/mL (≈ 139 µM) against B. subtilis, 40 µg/mL (≈ 69.5 µM) with E. fecium, 80 µg/mL (≈ 139 µM) against E. fecalis and 80 µg/mL (≈ 139 µM) against S.aureus (Smith). On B.subtilis pol IIIC, this compound yielded an inhibition constant Ki of 0.113 µM.
Take `CCc1cc(Nc2cc(=O)n(CCCCCNc3ncc(C#N)c(N)n3)c(=O)[nH]2)ccc1C` [Compound 66, 3-{5-[(4-amino-5-cyano-2-pyrimidinyl)amino]pentyl}-6-(3-ethyl-4-methylanilino)uracil]: the MIC in the assay on B. subtilis, in the assay on E. fecium, with E. fecalis and against S.aureus (Smith) was 80 µg/mL (≈ 178 µM) throughout. This compound also registered a Ki on B.subtilis pol IIIC of 39.5 µM.
`CCc1cc(Nc2cc(=O)n(CCCCCn3cnc4c(=O)n(C)c(=O)n(C)c43)c(=O)[nH]2)ccc1C` [Compound 67, 3-{5-[9-(1,3-dimethyl-2,6-dioxopurinyl)]pentyl}-6-(3-ethyl-4-methylanilino)uracil]: the MIC with B. subtilis amounted to 2.5 µg/mL (≈ 5.07 µM); in the assay with E. fecium, 10 µg/mL (≈ 20.3 µM); against E. fecalis, 20 µg/mL (≈ 40.5 µM); with S.aureus (Smith), 10 µg/mL (≈ 20.3 µM). This compound gave a Ki at B.subtilis pol IIIC of 0.06 µM.
As to `CCc1cc(Nc2cc(=O)n(CCCCCN3CCc4c([nH]c5ccc(OC)cc45)C3C(=O)O)c(=O)[nH]2)ccc1C` (stereo not drawn) [Compound 68, 3-[5-(1-carboxy-6-methoxy-2,3,4,9-tetrahydro-1H-β-carboline-2-yl)pentyl]-6-(3-ethyl-4-methylanilino)uracil], the MIC with B. subtilis was 20 µg/mL (≈ 35.7 µM); in the assay on E. fecium, 80 µg/mL (≈ 143 µM); in the assay with E. fecalis, 80 µg/mL (≈ 143 µM); against S.aureus (Smith), 40 µg/mL (≈ 71.5 µM). Besides, affinity on B.subtilis pol IIIC was put at a Ki of 0.288 µM.
As for `CCc1cc(Nc2cc(=O)n(CCCCCN3CCc4c([nH]c5ccc(OC)cc45)C3)c(=O)[nH]2)ccc1C` [Compound 69], the MIC is 5 µg/mL (≈ 9.7 µM) against B. subtilis, 20 µg/mL (≈ 38.8 µM) against E. fecium, 20 µg/mL (≈ 38.8 µM) in the assay on E. fecalis and 10 µg/mL (≈ 19.4 µM) in the assay on S.aureus (Smith). In addition, the inhibition constant (Ki) on B.subtilis pol IIIC was 0.109 µM.
On to `CCc1cc(Nc2cc(=O)n(CCCCCNC(=O)c3cccs3)c(=O)[nH]2)ccc1C` [Compound 70, 3-[5-(2-thiophenecarboxamido)pentyl]-6-(3-ethyl-4-methylanilino)uracil], for which the MIC against B. subtilis was determined as 1.25 µg/mL (≈ 2.84 µM); with E. fecium, 5 µg/mL (≈ 11.3 µM); with E. fecalis it was 5 µg/mL (≈ 11.3 µM); against S.aureus (Smith) it was 10 µg/mL (≈ 22.7 µM). For the same compound, on B.subtilis pol IIIC, affinity was put at a Ki of 0.065 µM.
For the compound `CCCCC1(O)CCN(CCCCCn2c(=O)cc(Nc3ccc(C)c(CC)c3)[nH]c2=O)CC1` [Compound 71, 3-{5-[1-(4-hydroxy-4-butylpiperidinyl)]pentyl}-6-(3-ethyl-4-methylanilino)uracil], the MIC against B. subtilis was determined as 5 µg/mL (≈ 10.6 µM); against E. fecium, 10 µg/mL (≈ 21.2 µM); against E. fecalis, 10 µg/mL (≈ 21.2 µM); in the assay on S.aureus (Smith), 10 µg/mL (≈ 21.2 µM). The same compound displayed a Ki at B.subtilis pol IIIC of 2.1 µM.
As to `CCc1cc(Nc2cc(=O)n(CCCCCN3CC=C(c4cccs4)CC3)c(=O)[nH]2)ccc1C` [Compound 72, 3-{5-[1-(4-(thiophen-2-yl)-1,2,3,6-tetrahydropyridinyl)]pentyl}-6-(3-ethyl-4-methylanilino)uracil], the minimum inhibitory concentration (MIC) in the assay on B. subtilis was 5 µg/mL (≈ 10.4 µM); with E. fecium, 40 µg/mL (≈ 83.6 µM); in the assay on E. fecalis, 20 µg/mL (≈ 41.8 µM); against S.aureus (Smith), 20 µg/mL (≈ 41.8 µM). Also, the Ki on B.subtilis pol IIIC is 0.077 µM.
In the case of `CCc1cc(Nc2cc(=O)n(CCCCCN3CC=C(c4cccc5ccsc45)CC3)c(=O)[nH]2)ccc1C` [Compound 73, 3-{5-[1-(4-(benzo[b]thiophen-7-yl)-1,2,3,6-tetrahydropyridinyl)]pentyl}-6-(3-ethyl-4-methylanilino)uracil], the MIC is 10 µg/mL (≈ 18.9 µM) against B. subtilis, above 80 µg/mL with E. fecium, above 80 µg/mL against E. fecalis and 10 µg/mL (≈ 18.9 µM) against S.aureus (Smith). In addition, on B.subtilis pol IIIC, the Ki turned out to be 0.08 µM.
For `CCc1cc(Nc2cc(=O)n(CCCCNCCCCn3cc(C(=O)O)c(=O)c4cc(F)c(Cl)cc43)c(=O)[nH]2)ccc1C` [Compound 74, 3-{4-[4-(3-carboxy-4-oxo-6-fluoro-7-chloroquinoline-1-yl)butylamino]butyl}-6-(3-ethyl-4-methylanilino)uracil], the MIC in the assay with B. subtilis, against E. fecium, with E. fecalis and in the assay on S.aureus (Smith) was 20 µg/mL (≈ 32.7 µM) each time. The Ki on B.subtilis pol IIIC was 0.063 µM.
Consider `CCc1cc(Nc2cc(=O)n(CCCCCN3CC=C(c4ccc(F)cc4)CC3)c(=O)[nH]2)ccc1C` [Compound 75], for which the MIC against B. subtilis, against E. fecium, against E. fecalis and against S.aureus (Smith) was 5 µg/mL (≈ 10.2 µM) each time. In addition, the affinity at B.subtilis pol IIIC, expressed as Ki, was 0.098 µM.
For the compound `CCc1cc(Nc2cc(=O)n(CCCCCN3CC=C(c4ccc(Cl)cc4)CC3)c(=O)[nH]2)ccc1C` [Compound 76, 3-{5-[1-(4-(4-chlorophenyl)-1,2,3,6-tetrahydropyridinyl)]pentyl}-6-(3-ethyl-4-methylanilino)uracil], the MIC was 5 µg/mL (≈ 9.86 µM) against B. subtilis, 80 µg/mL (≈ 158 µM) against E. fecium, 80 µg/mL (≈ 158 µM) against E. fecalis and 5 µg/mL (≈ 9.86 µM) with S.aureus (Smith). Also, the Ki at B.subtilis pol IIIC is 0.087 µM.
For the compound `CCc1cc(Nc2cc(=O)n(CCCCCNC(=O)c3cc4ccccc4s3)c(=O)[nH]2)ccc1C` [Compound 77, 3-[5-(2-benzo[b]thiophenecarboxamido)pentyl]-6-(3-ethyl-4-methylanilino)uracil], the MIC against B. subtilis, with E. fecium, against E. fecalis and in the assay with S.aureus (Smith) was 80 µg/mL (≈ 163 µM) throughout. The compound further yielded a Ki on B.subtilis pol IIIC of 0.48 µM.
Take `CCOC(=O)C1CN(CCCCCn2c(=O)cc(Nc3ccc(C)c(CC)c3)[nH]c2=O)CCC1=O` (stereo not shown) [Compound 78, 3-{5-(3-ethoxycarbonyl-4-oxopiperidinyl)pentyl}-6-(3-ethyl-4-methylanilino)uracil]: the minimal inhibitory concentration (MIC) against B. subtilis, against E. fecium, in the assay on E. fecalis and in the assay with S.aureus (Smith) was 80 µg/mL (≈ 165 µM) in each case. This compound also came in with a Ki on B.subtilis pol IIIC of 0.25 µM.
As to `CCc1cc(Nc2cc(=O)n(CCCCCNC[C@@H]3CCN(C(=O)OC(C)(C)C)C3)c(=O)[nH]2)ccc1C` [Compound 79, 3(S)-{5-[(N-tert-butoxycarbonylpyrrolidin-3-yl)methylamino]pentyl}-6-(3-ethyl-4-methylanilino)uracil], the MIC with B. subtilis worked out at 20 µg/mL (≈ 38.9 µM); with E. fecium it was 40 µg/mL (≈ 77.9 µM); against E. fecalis it was 40 µg/mL (≈ 77.9 µM); against S.aureus (Smith), 20 µg/mL (≈ 38.9 µM). Moreover, the Ki at B.subtilis pol IIIC stood at 0.12 µM.
Take `CCc1cc(Nc2cc(=O)n(CCCCN3CC=C(c4ccc5c(c4)OCO5)CC3)c(=O)[nH]2)ccc1C` [Compound 80, 3-{4-[4-(3,4-dioxomethylenephenyl-1,2,3,6-tetrahydropyridinyl)]butyl}-6-(3-ethyl-4-methylanilino)uracil]: the MIC in the assay on B. subtilis was 2.5 µg/mL (≈ 4.97 µM); against E. fecium, 5 µg/mL (≈ 9.95 µM); against E. fecalis it was 5 µg/mL (≈ 9.95 µM); against S.aureus (Smith), 10 µg/mL (≈ 19.9 µM). Moreover, the affinity at B.subtilis pol IIIC corresponds to a Ki of 0.024 µM.
`CCc1cc(Nc2cc(=O)n(CCCCN3CC=C(c4ccc(C)c(C)c4)CC3)c(=O)[nH]2)ccc1C` [Compound 81]: the minimum inhibitory concentration (MIC) against B. subtilis was 1.25 µg/mL (≈ 2.57 µM); in the assay with E. fecium, 10 µg/mL (≈ 20.5 µM); against E. fecalis, 10 µg/mL (≈ 20.5 µM); against S.aureus (Smith), 20 µg/mL (≈ 41.1 µM). The same compound displayed a Ki on B.subtilis pol IIIC of 0.034 µM.
For `CCc1cc(Nc2cc(=O)n(CCCCN3CC=C(c4ccc(F)c(C)c4)CC3)c(=O)[nH]2)ccc1C` [Compound 82], the MIC in the assay on B. subtilis amounted to 10 µg/mL (≈ 20.4 µM); against E. fecium, 20 µg/mL (≈ 40.8 µM); against E. fecalis, 20 µg/mL (≈ 40.8 µM); in the assay on S.aureus (Smith) it was 20 µg/mL (≈ 40.8 µM). Also, at B.subtilis pol IIIC, the Ki was 0.029 µM.
Consider `CCc1cc(Nc2cc(=O)n(CCCCO)c(=O)[nH]2)ccc1C` [HB-EMAU, 3-(4-hydroxybutyl)-6-(3-ethyl-4-methylanilino)uracil, reference compound], for which the MIC against B. subtilis was below 1.25 µg/mL; in the assay with E. fecium, 5 µg/mL (≈ 15.8 µM); against E. fecalis, 5 µg/mL (≈ 15.8 µM); in the assay on S.aureus (Smith), 5 µg/mL (≈ 15.8 µM). The compound further gave a Ki at B.subtilis pol IIIC of 0.07 µM.

For the origin of these results see patent US20030114445A1, “N3-substituted 6-anilinopyrimidines and methods to treat-Gram-positive bacterial and mycoplasmal infections” (priority 2001, published 2003).
